3 compounds from patent US10300000B2, “Inhibition of melanogenesis by chemically modified curcumins” (The Research Foundation for The State University of New York, priority 2016, dated 2019) can be followed below.

Assay [1] deals with T1, cellular tyrosinase in B16F10 cells (Mus musculus, UniProt P11344).
T1 construct: endogenous in cells; host or cells: B16F10
T1 sequence (P11344 19-533): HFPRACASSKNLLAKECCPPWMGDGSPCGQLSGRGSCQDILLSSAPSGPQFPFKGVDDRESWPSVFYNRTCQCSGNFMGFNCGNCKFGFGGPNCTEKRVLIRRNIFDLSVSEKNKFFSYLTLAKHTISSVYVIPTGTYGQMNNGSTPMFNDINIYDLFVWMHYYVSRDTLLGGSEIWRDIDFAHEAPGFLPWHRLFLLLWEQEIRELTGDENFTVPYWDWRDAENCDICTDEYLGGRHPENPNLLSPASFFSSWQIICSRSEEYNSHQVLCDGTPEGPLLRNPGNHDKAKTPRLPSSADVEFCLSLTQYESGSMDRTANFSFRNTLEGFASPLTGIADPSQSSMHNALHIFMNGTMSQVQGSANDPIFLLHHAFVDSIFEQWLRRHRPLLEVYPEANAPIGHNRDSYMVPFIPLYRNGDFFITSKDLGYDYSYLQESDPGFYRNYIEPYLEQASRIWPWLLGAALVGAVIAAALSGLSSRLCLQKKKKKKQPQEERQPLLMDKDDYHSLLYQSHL
Nature of the assay: Intracellular tyrosinase activity in B16F10 cells. Type of assay: cell-based. To be noted: B16F10 cells exposed for 48 hours; non-linear curve fitting; read-out: IC50-Cellular tyrosinase inhibition. The protocol:
We quantitated the cellular tyrosinase activity to delineate mechanism of melanogenesis inhibition by the compounds. Briefly, B16F10 cells were cultured in 24-well tissue culture plates at a density of 4×10^4 cells/well. After 24 hrs, media was changed and test compounds were added, and further incubated for 48 hrs. At the end of treatments, cells were trypsinized and cell pellets were washed in PBS and lysed with lysis buffer (containing 1% NP-40 to solubilize the normally membrane-bound enzyme and protease inhibitors) under ice for 20 minutes and then centrifuged to remove cellular debris. 50 μl of lysates were then aliquoted in 96-well microplate and 150 μl of 3 mM solution of freshly prepared L-DOPA in phosphate buffer, pH 6.8 was added. […] The % inhibition of tyrosinase activity was calculated by determining melanin formation rates from measurements of the linear regions of the slopes of melanin content as a function of time and comparing computed rates of melanin formation in the presence of the test compounds to those of the controls.

Assay [2] relates to MITF. Briefly: MITF protein levels by cell-based ELISA in B16F10 cells. Also on record: species or system mouse. Conditions: 48 hours. The protocol: MITF is the master regulator of melanogenesis and a known transcription factor for tyrosinase gene. The effects of PC and CMCs on micropthalmia transcription factor (MITF) proteins levels were assayed using a cell-based ELISA (LifeSpan Biosciences, Seattle). Briefly, B16F10 cells were cultured in a 96-well plate at 1×10^4 cells/well for 24 hours and then media was replaced with fresh media containing compounds in 0.1% DMSO for further 48 hours. The cells were then fixed and subsequent steps were conducted based on manufacturer instructions. The absorbance of MITF expression levels were normalized by absorbance of crystal violet stain (0.05%) and data was reported as % of control.
In general terms: In an ELISA, binding on a coated surface is turned into a signal by an enzyme label.

Assay [3] has as its system HaCaT cells. Nature of the assay: Phagocytosis assay using Fluosphere beads in keratinocytes. The class given is cell-based, human. Conditions: beads 24 hours. The text has this:
The final steps of melanognesis in the skin involve transfer of melanin contained within matgure melanosomes from melanocytes to keratinocytes. In order to model melanosome uptake by keratinocytes in the presence of CMCs, we used uptake of fluosphere latex beads (0.5 μm, carboxylate-modified, Molecular Probes, Eugene, Oreg.) by a human keratinocyte cell line (HaCaT) as a model for melanosome uptake study; this model has been previously established [Cardinali G, et al. 2005; Cardinali, G. et al. 2008] to study phagocytosis by keratinocytes. HaCaT cells were cultured in 24 well plates (3.5×10^4 cells/well) for 48 hours and then media was replaced with fresh media containing CMCs (CMC2.14 at 10 μM, CMC2.5 at 20 μM, CMC2.23 at 20 μM and CMC2.24 at 20 μM). Control wells were treated with 0.1% DMSO. After 48 hours exposure, media was removed and wells were washed with PBS and Fluosphere bead solution was suspended in complete medium by sonication for 15 minutes was then diluted in complete medium before addition to the wells ([…]) and further incubation for 24 hours. After the treatment, wells were washed in PBS and extracellular fluorescence was quenched using trypan blue (0.1% in PBS); Fluorescence intensity over the entire bottom surface of each well was measured at excitation/emission of 580/605 using the “well-scan” mode with average of 21 points/well for triplicate wells in a Gemini EM fluorescence plate reader. Controls without any beads were used as blank for background subtraction and results are reported as RFU values expressed as % relative to control.

Assay [4] in a line: DPPH antioxidant assay. To be noted: cell-free. The source says:
Melanogenesis is often associated with higher oxidative stress and reactive oxygen species (ROS) generation. […] DPPH is a stable free radical which changes color from purple to yellow upon reduction by antioxidant compounds by electron donation; the color change can be measured spectrophotometrically. […] Briefly, 2,2-Diphenyl-1-picrylhydrazyl (DPPH) was freshly prepared in methanol and mixed with different concentrations of the compounds in triplicates in a 96 well plate. The Negative Control group consisted of DPPH only and Ascorbic Acid (AA) at 100 μg/ml was used as a positive control. The final DPPH concentration was 100 μM and final volume was 200 ul in the plate (20 μl samples with 180 μl of DPPH). The plate was covered and incubated for 30 minutes. Absorbance was read at 517 nm.
For orientation: The DPPH test is a chemical assay of radical scavenging.

In assay [5] the test system is mushroom tyrosinase. Nature of the assay: Mushroom tyrosinase activity, cell-free, L-DOPA substrate. The class given is biochemical. Conditions: all concentrations tested. The protocol: The direct effects of the compounds on tyrosinase enzyme activity were tested using mushroom tyrosinase enzyme with L-DOPA substrate. Briefly, 80 μl of all the 6 test compounds prepared at different concentrations in 50 mM sodium phosphate (pH 6.5) buffer was added to 96 wells followed by 100 μl of freshly prepared substrate solution (3 mM L-DOPA in buffer). The reaction was initiated by adding 20 μl of mushroom tyrosinase enzyme (final concentration of enzyme in wells was 3.5 μg/ml). The production of DOPAchrome was monitored by measuring the kinetics of absorbance increase at 475 nm (for 30 min every 30 seconds) at 30° C. using microplate reader (Versamax®). The slopes of the kinetic readings were calculated to determine and compare tyrosinase activity from control.

[6] abbreviates: B16F10, 5 μM (printed 5 M for CMC2.23).
[7] abbreviates: B16F10, 20 μM (printed 20 M for CMC2.5).

The term IC50 denotes the midpoint of a concentration-inhibition curve. Take `COC(=O)C(C(=O)/C=C/c1ccc(O)cc1)C(=O)/C=C/c1ccc(O)cc1` [CMC2.14]: the IC50 in assay [1] worked out at 4.69 µM. Further, the “inhibition of MITF protein levels” value in assay [2] (B16F10, tested concentrations 5-10 μM) is given as “did not show any significant reduction”. The “inhibition of phagocytosis of Fluosphere beads” value (“inhibition … of Fluosphere beads” for short) in assay [3] (10 μM pretreatment 48 hours) is reported as 39.6%. Besides, the “DPPH antioxidant activity” value in assay [4] is reported as “did not demonstrate potent antioxidant activity”. Also, the “inhibition of mushroom tyrosinase activity” value in assay [5] is on record as “moderate inhibition”.

Turning to `COc1cc(/C=C/C(=O)C(C(=O)/C=C/c2ccc(O)c(OC)c2)C(=O)Nc2ccccc2)ccc1O` [CMC2.23], the half-maximal inhibitory concentration (IC50) in assay [1] is 13 µM. The “inhibition of MITF protein levels” value in assay [2] (setting [6]) is on record as 20%; in assay [2] (setting [7]), 40%; in assay [2] (B16F10, 25 μM), 40%. Further, in assay [3] (20 μM pretreatment 48 hours), the “inhibition … of Fluosphere beads” value turned out to be 37.4%. In assay [4], the “DPPH antioxidant activity” value is listed as “significant DPPH radical scavenging activity”. In addition, the “inhibition of mushroom tyrosinase activity” value in assay [5] was “moderate inhibition”.

Regarding `COC(=O)C(C(=O)C=Cc1ccc(O)c(OC)c1)C(=O)C=Cc1ccc(O)c(OC)c1` (stereo not shown) [CMC2.5, 4-methoxycarbonyl curcumin], in assay [1], the 50% inhibitory concentration (IC50) was 50.7 µM. Also, the “inhibition of MITF protein levels” value in assay [2] (setting [6]) was “did not show any suppression”; in assay [2] (B16F10, 10 μM), “did not show any suppression”; in assay [2] (setting [7]), 35%. Besides, the “inhibition … of Fluosphere beads” value in assay [3] (20 μM pretreatment 48 hours) came to 38.4%. Besides, the “DPPH antioxidant activity” value in assay [4] is listed as “significant DPPH radical scavenging activity”. Besides, in assay [5], the “inhibition of mushroom tyrosinase activity” value is given as “moderate inhibition”.
